Reference: US20100160342A1, “Compositions of Topical Ocular Solutions to Deliver Effective Concentrations of Active Agent to the Posterior Segment of the Eye” (ALCON RESEARCH, LTD., priority 2008, published 2010)

Experiments:
[1] = Source text: Another preferred criterion for improving the bioavailability of the active agent is establishing a pH range for the composition which provides the highest solubility. It will be apparent to the skilled artisan that the pH of the composition will depend upon the concentration and the salt form of the active agent in the composition.
[2] = Ocular comfort / stinging upon topical administration to the eye
Source text: It is well known that acidic solutions alone cause ocular stinging.

[3] = in vivo

With `O=C1[C@@H]2[C@H]3CC[C@H](C3)[C@@H]2C(=O)N1CCCCN1CCN(c2ncccn2)CC1` [Tandospirone, tandospirone] as the compound, how does the “solubility versus theoretical solubility predicted by the Handerson-Hasselbach relationship” value [1] read?
Its value is “does not exhibit this solubility dip”.

What about the “ocular stinging / comfort” value ([2]; ophthalmic solution administered topically to the eye) of the same compound?
Its value is “more comfortable”.

And the “aqueous humor (AqH) drug level, 0.5% HPMC versus 0% HPMC” value [3]?
The value was about 3 fold.

And the “retina drug level, 0.5% HPMC versus 0% HPMC” value [3]?
The value was 0.5% HPMC ˜0% HPMC.

For “tandospirone citrate [tandospirone citrate salt]”, which “solubility compared with the free base” value [1] is on record?
The value was “dramatically less than that of the free base”.

What about the “solubility versus theoretical solubility predicted by the Handerson-Hasselbach relationship” value [1] of the same compound?
Its value is “decreased substantially”.

What about the “ocular stinging / comfort” value ([2]; in vivo) of the same compound?
The value was “stings”.
